{
  "source": "patent US7429602B2",
  "about": "“Treating conjunctivitis by topically administering an epinastine solution to the conjunctiva” (Boehringer Ingelheim Pharma GmbH & Co. Kg, priority 1999, dated 2008)",
  "system": "conjunctiva (eosinophils, neutrophils, mast cell degranulation)",
  "settings": "conjunctiva examined two hours after ovalbumin",
  "method": "72 hours after the rats have been sensitized by injecting antiserum into the eyelids of the test animals, a fresh provocation was induced in them by intravenous administration of ovalbumin. Some of the experimental animals were pretreated by the administration of solution containing epinastine according to the invention into the conjunctival sac 15 minutes before the ovalbumin is administered. Two hours after the administration of ovalbumin the experimental animals were killed and the conjunctiva was investigated for its content of eosinophils and neutrophils and the mast cell granulation was determined.",
  "key": {"[1]": {"settings": "epinastine solution into the conjunctival sac 15 minutes before i.v. ovalbumin, p<0.01"}},
  "data": [
    {"smiles": "NC1=NCC2c3ccccc3Cc3ccccc3N12", "note": "(stereo not drawn) [epinastine, 3-amino-9,13b-dihydro-1H-dibenz-[c,f]imidazol[1,5-a]azepine]", "values": [
      {"measurement": "content of eosinophils in conjunctiva", "setting": "epinastine solution 0.05-0.5% into the conjunctival sac 15 minutes before i.v. ovalbumin", "value": "significantly lower"},
      {"measurement": "content of lymphocytes in conjunctiva", "setting": "[1]", "value": "significantly lower"},
      {"measurement": "inhibition of mast cell degranulation", "setting": "[1]", "value": "roughly 35%"}
    ]}
  ]
}
